Laboratory results as given in PubChem BioAssay AID248 (DTP/NCI, 2004).
Inconclusive results and toxic doses are left out. Rule as the data show it: active = T/C of 150% or more; inactive = T/C below 125%.

System: L1210 leukemia ip in BDF1 mice, survival T/C
Experiment: NCI In Vivo Anticancer Drug Screen. Data for tumor model L1210 Leukemia (intraperitoneal) in B6D2F1 (BDF1) mice
Conditions: endpoint: mean survival time, schedule: Q01DX001 (ip), vehicle: saline, higher = longer survival
Outline: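 Transplantable tumor model; survival measured in treated vs vehicle control mice. Value = treated/control.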

Measured: T/C

Clc1ccccc1-c1ccc2c(Cl)ccnc2c1
inactive: dose: 100.0 mg/kg/injection 95 % of control | dose: 200.0 mg/kg/injection 95 % of control | dose: 400.0 mg/kg/injection 91 % of control
